The results in this text go back to patent US12390467B2, “Necroptosis inducers or autophagy inhibitors or a combination thereof” (The University of Toledo, priority 2018, dated 2025).

In general, IC50 refers to the concentration needed to halve the response being measured.

Holding throughout (format): cell-based
One assay relates to β-catenin in MDA-MB468. Description: Western blot, β-catenin, MDA-MB468. The method, then:
The TNBC cells were seeded in a culture flask and incubated for 24 h. The cells were then incubated with different concentrations of the lead compounds and re-incubated for an additional 12 or 24 h. […] The bicinchoninic acid (BCA) was used to determine protein concentration in the cell extracts (G-BIOSCIENCES, St. Louis, MO, USA). […] The membrane was blocked using 5% milk in Tris-buffered Tween 20 saline for 30 minutes. […] A ChemiDoc™ MP System imaging system from Bio-Rad (Hercules, CA, USA) was used for blots reading. Blots were used to obtain the protein bands, followed by quantification of the bands using image J software (NIH, Bethesda, MD, USA). All of the data were expressed as the ratio of β-actin or GAPDH.
(In general: Immunoblotting shows a protein as a band on a membrane.)

Assay [1] relates to RIP, p-RIP, MLKL, caspase 8 in MDA-MB468 cells. Description: Western blot, necroptotic proteins, MDA-MB468. The protocol: The TNBC cells were seeded in a culture flask and incubated for 24 h. The cells were then incubated with different concentrations of the lead compounds and re-incubated for an additional 12 or 24 h. […] The bicinchoninic acid (BCA) was used to determine protein concentration in the cell extracts (G-BIOSCIENCES, St. Louis, MO, USA). […] The membrane was blocked using 5% milk in Tris-buffered Tween 20 saline for 30 minutes. The membrane was then incubated overnight with primary antibodies against Bak, Bax, Bcl-2, caspase9, caspase 3, caspase 7, PARP, cytochrome c, N-cadherin, E-cadherin, c-Myc, dishevelled segment polarity protein 3 (DVL3), dishevelled segment polarity protein 2 (DVL2), Vimentin, mitogen-activated protein kinase kinase (MAPKK also known as MEK1/2), β-catenin, low-density lipoprotein receptor-related protein 6 (LRP6), receptor-interacting protein kinase (RIP), phosphorylated RIP (p-RIP), mixed lineage kinase domain like pseudokinase(MLKL), Caspase 8, light chain 3 (LC3), lysosomal-associated membrane protein 1 (LAMP1), unc-51 like autophagy activating kinase 1 (ULK1), ras associated protein 7 (Rab7), ras associated protein 5 (Rab5), Beclin 1, mechanistic target of rapamycin (mTOR), tumor necrosis factor alpha (TNF-α), tumor necrosis factor receptor 1 (TNFR1), tumor necrosis factor receptor 2 (TNFR2), Fas-associated protein with death domain (FADD), Fas ligand (Fas), TNF-related apoptosis-inducing ligand (TRAIL), death receptor 5 (DR5), Tumor necrosis factor receptor type 1-associated DEATH domain (TRADD), receptor-interacting protein kinase 3 (RIP3), β-actin or GAPDH in 1:1000 dilution in 5% milk or 5% BSA at 4° C. Horseradish peroxidase-labeled (HRP) anti-rabbit or anti-mouse secondary antibodies (1:5,000 dilution) were added and incubated the next day for an additional 1 h. A ChemiDoc™ MP System imaging system from Bio-Rad (Hercules, CA, USA) was used for blots reading. Blots were used to obtain the protein bands, followed by quantification of the bands using image J software (NIH, Bethesda, MD, USA). All of the data were expressed as the ratio of β-actin or GAPDH.

The subject of assay [2] is ABCG2 transporter in H460/MX20, S1M180 and HEK293/R2 cells. Kind of assay: Western blot, ABCG2 transporter expression. The note with it: concentration dependent. An excerpt:
FIG. 25: TPH104 reverses multidrug resistance by downregulating the expression of ABCG2 transporter in a concentration dependent fashion in drug resistant small cell lung cancer cells (H460/MX20), colon cancer cells (S1M180) and ABCG2-transfected cells (HEK293/R2). The bar graph represents the quantified values of the ratio of ABCG2/β-actin. The data represent mean±SEM of three independent western blots. *p<0.05, **p<0.01 compared to control.

The test system of assay [3] is MDA-MB468 (TNBC cell line). Description: MTT cell viability assay, MDA-MB468. The note with it: Homo sapiens, MDA-MB-468, 72 h, read-out: IC50 ± SD, MDA-MB468. The method, then:
The following cancer and non-cancer cell lines were used in the initial cytotoxicity screening of the TPH104 compounds: triple negative breast cancer (TNBC): MDA-MB468, MDA-MB 231, and BT-20; non-TNBC: MCF-7 and ZR-75-1; ovarian: Ov2008; prostate: DU145; colon: HCT-116, S1, and LOVO; lung: H460; normal kidney: HEK-293; normal breast: HMEC; and normal colon: CRL-1459. All cells were cultured in Dulbecco's modified Eagle medium (DMEM), supplemented with 10% fetal bovine serum (FBS), and 1% penicillin/streptomycin (P/S). Cells were allowed to grow as adherent monolayers in T25 flasks in a humidified incubator with 5% CO2 at 37° C. for a period of 24 h, unless otherwise specified for certain experiments.
The MTT assay was used to determine the cytotoxicity of all of the compounds. Briefly, in a 96-well flat-bottom cell culture plate, the cells were seeded at a density between 3-5×10^3 cells/well (180 μl in each well) and incubated for 24 h (a hemocytometer was used for cell counting). The next day, the cells were incubated with different concentrations of the nine compounds (0, 0.1, 0.3, 1, 3, 10, 30, and 100 μM) for 72 h. After 72 h, 20 μl of 5 mg/ml of 3-(4,5-dimethylthiazol-2-yl)-2,5-diphenyltetrazolium bromide (MTT) was added to the plate and incubated with the cells for 3 h at 37° C. In this experiment, the living cells will reduce the soluble MTT dye to non-soluble purple formazan crystals. Following incubation, the media containing MTT removed via suction and 100 μL of 100% dimethyl sulfoxide (DMSO) was added to dissolve the formazan crystals. Subsequently, the plate was shaken for 2 minutes and the absorbance was measured at a wavelength of 570 nm using a SpectraMax iD3 Multi-Mode Microplate Reader (Molecular Devices, Sunnyvale, CA). The IC50 values of each compound were calculated and used to determine the selectivity ratio (IC50 in normal cells/IC50 in cancer cells) of each compound as previously described. Based on the results obtained from these experiments, the compound TPH104, which had the lowest IC50 value, was selected for further experiments.
Background: Formazan colour is commonly taken as a measure of viable cells.

A further assay has as its system BT-20 cells. Description: Hoechst 33258 assay and live cell morphology, BT-20. The method, then: FIGS. 8A-8B: Representative images of morphological changes in BT-20 TNBC cells incubated with 0, 1, or 3 μM of TPH104 (FIG. 8A). The images were taken using an incuCyte live cell imaging instrument.
To detect DNA fragmentation following apoptotic cell death, the Hoechst 33258 assay was performed. Briefly, TNBC cells were seeded in a 6-well plate at a density of 10,000 cells/well over 18-mm cover slips and incubated for 24 h. Following incubation, TPH104 (1, 2, or 5 μM), or vehicle were added for an additional 12 h. Subsequently, Hoechst 33258 (Sigma Aldrich, USA) was added to the cells at a concentration of 0.5 mg/mL and incubated for 30 minutes at 37° C. The cells were then washed 3× with phosphate buffered saline (PBS). Subsequently, the cover slips were mounted on a microscope glass/slide and allowed to dry for at least 2 h. Stained cells from each cover slip were captured from randomly selected fields under a fluorescent microscope (EVOS-FLC cell imaging system, Thermofisher scientific) to qualitatively determine the proportion of viable and apoptotic cells based on their relative fluorescence and nuclear fragmentation as previously described.

`COc1ccc(O)c(/C=N/Nc2ncnc3scc(-c4ccc(C)cc4)c23)c1` [TPH104]: the “expression of β-catenin” value in the assay on β-catenin in MDA-MB468 was “significantly decreased”. Besides, in assay [1] (0.5, 1, 2, and 5 μM), the “expression of caspase 8” value is listed as “significantly decreased”. For the same compound, in assay [1] (1, 2, and 5 μM), the “expression levels of MLKL” value is “significantly increased” and the “expression of p-RIP” value is “significantly increased”. Further, in assay [1] (1, 2, or 5 μM for 12 h), the “expression of RIP1” value is reported as “significantly increased”. In addition, in assay [2], the “expression of ABCG2 transporter” value is recorded as “downregulated”. Besides, in assay [3], the IC50 is 250 nM. Besides, in the assay with BT-20 cells (1 μM and 3 μM), the cellular shrinkage result was “did not induce cellular shrinkage” and the “rupture of the cellular membrane” value was “did induce rupture”. Besides, the nuclear condensation entry in the assay on BT-20 cells (1, 2, and 5 μM, 12 h) was “did not show nuclear condensation”.
